Laboratory results as given in patent publication US8435561B2 (Besins Healthcare Luxembourg Sarl, priority 2001, dated 2013).

Test: Comparative particle size study (Mastersizer 2000 laser particle sizer)
Assay type: physicochemical
Conditions: in sesame seed oil, olive oil, colza oil or almond oil, compared to that obtained in peanut oil

size distribution of progesterone: comparable
Structure (SMILES): CC(=O)[C@H]1CC[C@H]2[C@@H]3CCC4=CC(=O)CC[C@]4(C)[C@H]3CC[C@]12C [Micronized Progesterone, progesterone]
